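Following 48 hours of exposure in 96-well plates, responses at five concentrations were used to interpolate endpoints linearly. GI50 = concentration required for 50% inhibition of growth. Definition used: TGI = concentration required for complete inhibition of growth.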
Columns and labels:
Assay in all cases: NCI-60 cell line screen, 48 h
[1] = tested on: NCI-H226 lung
[2] = tested on: SNB-19 CNS
[3] = tested on: IGROV1 ovarian
[4] = tested on: UO-31 renal
[5] = tested on: BT-549 breast
[6] = tested on: A549 NSCLC
[7] = tested on: SN12C renal
[8] = tested on: MCF7 breast
[9] = tested on: PC-3 prostate
[10] = tested on: A498 renal
[11] = tested on: COLO 205 colon
[12] = tested on: ACHN renal
[13] = tested on: OVCAR-4 ovarian
[14] = tested on: UACC-62 melanoma
[15] = tested on: OVCAR-5 ovarian
[16] = tested on: RXF 393 renal
[17] = tested on: RPMI-8226 leukemia
[18] = tested on: K-562 leukemia
[19] = tested on: UACC-257 melanoma
[20] = tested on: U251 CNS
[21] = tested on: CCRF-CEM leukemia
[22] = tested on: OVCAR-8 ovarian
[23] = tested on: NCI-H460 lung
[24] = tested on: MOLT-4 leukemia
[25] = tested on: MDA-MB-435
[26] = tested on: SW-620 colon
[27] = tested on: LOX IMVI melanoma
[28] = tested on: HS 578T breast
[29] = tested on: SF-295 CNS
[30] = tested on: KM12 colon
[31] = tested on: MALME-3M melanoma
[32] = tested on: SK-OV-3 ovarian
[33] = tested on: 786-0 renal
[34] = tested on: NCI/ADR-RES ovarian
[35] = tested on: HCT-15 colon
[36] = tested on: CAKI-1 renal
[37] = tested on: HCC-2998 colon
[38] = tested on: HL-60(TB) leukemia
[39] = tested on: SK-MEL-2 melanoma
[40] = tested on: SK-MEL-5 melanoma
[41] = tested on: T-47D breast
[42] = tested on: EKVX NSCLC
[43] = tested on: SR leukemia
[44] = tested on: OVCAR-3 ovarian
[45] = tested on: MDA-MB-231 breast
[46] = tested on: HCT-116 colon
[47] = tested on: TK-10 renal
[48] = tested on: SNB-75 CNS
[49] = tested on: HT29 colon
[50] = tested on: SF-268 CNS
[51] = tested on: SK-MEL-28 melanoma
[52] = tested on: SF-539 CNS
[53] = tested on: DU-145 prostate
[54] = tested on: HOP-62 NSCLC
[55] = tested on: NCI-H23 lung
[56] = tested on: HOP-92 NSCLC
[57] = tested on: NCI-H522 lung

## Cc1ccc(C(=O)Nc2ccc(CNCCN3CCOCC3)c(C(F)(F)F)c2)cc1C#Cc1cnc2cccnn12
[1]
  GI50: 1660 nM
  TGI: 7590 nM
[2]
  GI50: 3110 nM
  TGI: 9730 nM
[3]
  GI50: 1270 nM
  TGI: 3430 nM
[4]
  GI50: 1450 nM
  TGI: 3470 nM
[5]
  GI50: 2270 nM
  TGI: 4560 nM
[6]
  GI50: 2540 nM
  TGI: 10600 nM
[7]
  GI50: 1750 nM
  TGI: 5680 nM
[8]
  GI50: 1420 nM
  TGI: 3200 nM
[9]
  GI50: 2070 nM
  TGI: 6170 nM
[10]
  GI50: 1940 nM
  TGI: 4280 nM
[11]
  GI50: 1230 nM
  TGI: 3820 nM
[12]
  GI50: 2820 nM
  TGI: 9550 nM
[13]
  GI50: 2520 nM
  TGI: 14500 nM
[14]
  GI50: 1450 nM
  TGI: 3430 nM
[15]
  GI50: 1850 nM
  TGI: 8170 nM
[16]
  GI50: 1630 nM
  TGI: 3210 nM
[17]
  GI50: 1420 nM
  TGI: 3830 nM
[18]
  TGI: 11600 nM
[19]
  GI50: 1690 nM
  TGI: 3570 nM
[20]
  GI50: 1840 nM
  TGI: 4650 nM
[21]
  GI50: 1550 nM
  TGI: 8230 nM
[22]
  GI50: 3090 nM
  TGI: 10800 nM
[23]
  GI50: 1760 nM
  TGI: 3900 nM
[24]
  GI50: 1310 nM
  TGI: 5370 nM
[25]
  GI50: 746 nM
  TGI: 2320 nM
[26]
  GI50: 1660 nM
  TGI: 10500 nM
[27]
  GI50: 515 nM
  TGI: 1870 nM
[28]
  GI50: 1810 nM
  TGI: 5240 nM
[29]
  GI50: 1620 nM
  TGI: 3570 nM
[30]
  GI50: 393 nM
  TGI: 2680 nM
[31]
  GI50: 229 nM
  TGI: 1870 nM
[32]
  GI50: 3910 nM
  TGI: 13600 nM
[33]
  GI50: 1210 nM
  TGI: 3290 nM
[34]
  GI50: 2170 nM
  TGI: 7470 nM
[35]
  GI50: 925 nM
  TGI: 4900 nM
[36]
  GI50: 2900 nM
  TGI: 7230 nM
[37]
  GI50: 1550 nM
  TGI: 3240 nM
[38]
  GI50: 145 nM
  TGI: 2600 nM
[39]
  GI50: 1270 nM
  TGI: 3440 nM
[40]
  GI50: 1450 nM
  TGI: 2810 nM
[41]
  GI50: 2370 nM
  TGI: 6730 nM
[42]
  GI50: 3120 nM
  TGI: 10700 nM
[43]
  GI50: 1400 nM
  TGI: 6640 nM
[44]
  GI50: 2390 nM
  TGI: 6240 nM
[45]
  GI50: 1150 nM
  TGI: 3190 nM
[46]
  GI50: 500 nM
  TGI: 2430 nM
[47]
  GI50: 2610 nM
  TGI: 7510 nM
[48]
  GI50: 64.4 nM
  TGI: 778 nM
[49]
  GI50: 794 nM
  TGI: 5990 nM
[50]
  GI50: 2460 nM
  TGI: 7040 nM
[51]
  GI50: 1220 nM
  TGI: 2740 nM
[52]
  GI50: 1320 nM
  TGI: 2670 nM
[53]
  GI50: 2920 nM
  TGI: 8190 nM
[54]
  GI50: 2160 nM
  TGI: 6550 nM
[55]
  GI50: 890 nM
  TGI: 3030 nM
[56]
  GI50: 761 nM
  TGI: 3120 nM
[57]
  GI50: 1990 nM
  TGI: 5220 nM
